Here are results for 23 compounds from patent publication US9040563B2, “Dual inhibitors of farnesyltransferase and geranylgeranyltransferase I” (H. Lee Moffitt Cancer Center and Research Institute, Inc., priority 2010, dated 2015).

For assay [1], the target named is hFTase (Homo sapiens, UniProt P49354+P49356). The assay is described as follows: In vitro hFTase inhibition: incorporation of [3H]FPP into recombinant H-Ras-CVLS. Type of assay: biochemical. The following applies: for selectivity (ratio of GGTase-I to FTase IC50s): GGTase-I IC50 / hFTase IC50; for GGTase-I/FTase selectivity: selectivity for hFTase over GGTase-I; for IC50: in vitro, average of three independent assays (n = 3) unless stated, errors are standard deviations.

The test system of assay [2] is farnesylation of H-Ras. Description: Whole cell inhibition of H-Ras processing (farnesylation), immunoblot, oncogenic H-Ras-transformed NIH3T3 cells. In kind it is cell-based, mouse. The following applies: Mus musculus, NIH3T3, whole cells, oncogenic H-Ras-transformed NIH3T3; n = 3 unless stated; read-out: H-Ras processing IC50. How it is done:
(§1) In vitro inhibition assays for FTase and GGTase-I were conducted by measuring the incorporation of [^3H]FPP and [^3H]GGPP into recombinant H-Ras-CVLS and H-Ras-CVLL, respectively, as previously described (Vogt, et al., Protein geranylgeranylation, not farnesylation, is required for the G1 to S phase transition in mouse fibroblasts. Oncogene, 1996, 13, 1991-1999). The in vivo inhibition of farnesylation and geranylgeranylation was determined based on the level of inhibition by synthetic compounds of H-Ras and Rap1A processing, respectively (Sun, et al., Both farnesyltransferase and geranylgeranyltransferase I inhibitors are required for inhibition of oncogenic K-Ras prenylation but each alone is sufficient to suppress human tumor growth in nude mouse xenografts. Oncogene, 1998, 16, 1467-1473). […] The separated proteins were transferred to nitrocellulose and immunoblotted using an anti-Ras antibody (Y13-258) or an anti-Rap1A antibody (SantaCruz Biotechnology, Santa Cruz, Calif.), respectively. Antibody reactions were visualized using either peroxidase-conjugated goat anti-rat IgG or goat anti-rabbit IgG (Jackson ImmunoResearch, West Grove, Pa.) and an enhanced chemiluminescence detection system.
(§2) Briefly, in vitro inhibition assays for hFTase and GGTase-I were carried out by measuring the incorporation of [^3H]FPP and [^3H]GGPP into recombinant H-Ras-CVLS and H-Ras-CVLL, respectively, as described previously (Vogt et al., Protein geranylgeranylation, not farnesylation, is required for G1 to S phase transition in mouse fibroblasts. Oncogene. 1996; 13:1991-1999). Whole cell inhibition of farnesylation and geranylgeranylation were determined based on the level of inhibition by synthetic compounds of H-Ras and Rap1A processing, respectively (Sun, et al., Both farnesyltransferase and geranylgeranyltransferase I inhibitors are required for inhibition of oncogenic K-Ras prenylation but each alone is sufficient to suppress human tumor growth in nude mouse xenografts. Oncogene. 1998; 16:1467-1473).
(In general: A western blot detects proteins with antibodies after separation by electrophoresis.)

Assay [3] concerns geranylgeranylation of Rap1A. The assay is described as follows: Whole cell inhibition of Rap1A processing (geranylgeranylation), immunoblot, oncogenic H-Ras-transformed NIH3T3 cells. The following applies: whole cells, oncogenic H-Ras-transformed NIH3T3, n = 3 unless stated, read-out: Rap1A processing IC50. Type of assay: cell-based, mouse. How it is done: as §1, §2
For assay [4], the target named is GGTase-I (Homo sapiens, UniProt P49354+P53609). Description: In vitro GGTase-I inhibition: incorporation of [3H]GGPP into recombinant H-Ras-CVLL. In kind it is biochemical. To be noted: average of n = 3 unless stated, errors are standard deviations, read-out: GGTase-1 IC50.

The structures appear in SMILES notation. Read-outs that look alike come from different tables or passages of the source. Where only a bound is given, the exact number is not on record here.

By IC50 is commonly meant the concentration that inhibits the measured activity by half. Take `C#CCN(CCN(Cc1cncn1C)c1ccc(C#N)cc1)S(=O)(=O)c1cn(C)cn1` [1aa]: the “selectivity (ratio of GGTase-I to FTase IC50s)” value in assay [1] is more than 14. The half-maximal inhibitory concentration (IC50) in assay [2] is 6 µM; in assay [3] (Mus musculus), more than 10 µM.

On to `C=C(C)CN(CCN(Cc1cncn1C)c1ccc(C#N)cc1)S(=O)(=O)c1cn(C)cn1` [1ac], for which, in assay [1], the “selectivity (ratio of GGTase-I to FTase IC50s)” value is reported as 5.3 and the GGTase-I/FTase selectivity result is “about 5 fold”. For the same compound, the IC50 in assay [2] is more than 10 µM. Moreover, the IC50 in assay [3] (Mus musculus) was more than 10 µM.

As for `C=C(Br)CN(CCN(Cc1cncn1C)c1ccc(C#N)cc1)S(=O)(=O)c1cn(C)cn1` [1ad], the “selectivity (ratio of GGTase-I to FTase IC50s)” value in assay [1] is 31. Moreover, the figures for the IC50 in assay [2] and in assay [3] (Mus musculus) were 5.7 ± 1.5 µM and more than 10 µM, respectively.

Take `Cn1cnc(S(=O)(=O)N(CCN(Cc2cncn2C)c2ccc(C#N)cc2)CC(=O)NC(C)(C)C)c1` [1ae]: the “selectivity (ratio of GGTase-I to FTase IC50s)” value in assay [1] is 7.1. Besides, the IC50 in assay [2] and in assay [3] (Mus musculus) was more than 10 µM each time.

Take `Cn1cnc(S(=O)(=O)N(CCN(Cc2cncn2C)c2ccc(C#N)cc2)Cc2ccncc2)c1` [1af]: the “selectivity (ratio of GGTase-I to FTase IC50s)” value in assay [1] is listed as more than 139. Moreover, the IC50 in assay [2] and in assay [3] (Mus musculus) was more than 10 µM throughout.

`Cn1cnc(S(=O)(=O)N(CCN(Cc2cncn2C)c2ccc(C#N)cc2)CCn2cccc2)c1` [1ag]: the “selectivity (ratio of GGTase-I to FTase IC50s)” value in assay [1] was 17. Moreover, the values for the half-inhibitory concentration (IC50) in assay [2] and in assay [3] (Mus musculus) were 4.3 ± 1.5 µM and more than 10 µM, respectively.

For the compound `Cc1nc(C)c(CN(CCN(Cc2cncn2C)c2ccc(C#N)cc2)S(=O)(=O)c2cn(C)cn2)s1` [1am, [N-(2,4-Dimethyl-thiazol-5-ylmethyl), N-{2-[(4-cyanophenyl)-(3-methyl-3H-imidazol-4-ylmethyl)-amino]-ethyl}]1-methyl-1H-imidazole-4-sulfonamide], the “selectivity (ratio of GGTase-I to FTase IC50s)” value in assay [1] is on record as more than 1.6. Moreover, the IC50 in assay [2] and in assay [3] (Mus musculus) was more than 10 µM each time.

As for `Cn1cnc(S(=O)(=O)N(CCN(Cc2cncn2C)c2ccc(C#N)cc2)Cc2ccc(C#N)cc2)c1` [1as], in assay [1], the “selectivity (ratio of GGTase-I to FTase IC50s)” value was determined as 18. The IC50 in assay [2] and in assay [3] (Mus musculus) was more than 10 µM throughout.

With `Cn1cnc(S(=O)(=O)N(CCN(Cc2cncn2C)c2ccc(C#N)cc2)CC2CC2)c1` [1aw, [N-(Cyclopropylmethyl), N-{2-[(4-cyanophenyl)-(3-methyl-3H-imidazol-4-ylmethyl)-amino]-ethyl}]1-methyl-1H-imidazole-4-sulfonamide], the “selectivity (ratio of GGTase-I to FTase IC50s)” value in assay [1] is reported as more than 17. The IC50 in assay [2] and in assay [3] (Mus musculus) was more than 10 µM throughout.

For the compound `Cn1cnc(S(=O)(=O)N(CCN(Cc2cncn2C)c2ccc(C#N)cc2)CC2CCN(C(=O)OC(C)(C)C)CC2)c1` [1ay], in assay [1], the “selectivity (ratio of GGTase-I to FTase IC50s)” value is given as more than 2.7. Also, the IC50 in assay [2] and in assay [3] (Mus musculus) was more than 2 µM each time.

As to `Cn1cncc1CN(CCN(Cc1ccccc1)S(=O)(=O)C1CC1)c1ccc(C#N)cc1` [1c, N-Benzyl, N-{2-[(4-cyanophenyl)-(3-methyl-3H-imidazol-4-ylmethyl)-amino]-ethyl}cyclopropanesulfonamide], the “selectivity (ratio of GGTase-I to FTase IC50s)” value in assay [1] is on record as 65. For the same compound, the values for the IC50 in assay [1] and in assay [4] were 0.085 ± 0.0007 µM and 5.5 ± 2.7 µM, respectively.

For the compound `Cn1cncc1CN(CCN(Cc1ccccc1)S(=O)(=O)c1cccs1)c1ccc(C#N)cc1` [1e], the “selectivity (ratio of GGTase-I to FTase IC50s)” value in assay [1] stood at 200. In addition, the IC50 was not below 10 µM in assay [4] and more than 10 µM in assay [3] (Mus musculus).

In the case of `Cn1cncc1CN(CCN(Cc1ccccc1)S(=O)(=O)c1cccc2cccnc12)c1ccc(C#N)cc1` [1g], the GGTase-I/FTase selectivity in assay [1] is given as 333 fold. Moreover, the IC50 in assay [4] is not below 10 µM; in assay [3] (Mus musculus) it was more than 10 µM.

As to `CN(C)c1cccc2c(S(=O)(=O)N(CCN(Cc3cncn3C)c3ccc(C#N)cc3)Cc3ccccc3)cccc12` [1h], the “selectivity (ratio of GGTase-I to FTase IC50s)” value in assay [1] worked out at 63. Also, the figures for the IC50 in assay [4], in assay [2] and in assay [3] (Mus musculus) were not below 10 µM, 0.5 ± 0.3 µM and more than 10 µM, respectively.

As for `Cn1cncc1CN(CCN(CC1CCCCC1)S(=O)(=O)c1ccccn1)c1ccc(C#N)cc1` [21a, N-(2-((4-cyanophenyl)((1-methyl-1H-imidazol-5-yl)methyl)amino)ethyl)-N-(cyclohexylmethyl)pyridine-2-sulfonamide], the “selectivity (ratio of GGTase-I to FTase IC50s)” value in assay [1] is given as 1.5. The IC50 in assay [2] was determined as 0.268 ± 0.212 µM; in assay [3] (Mus musculus) it was 6.2 ± 1.2 µM.

For `Cn1cncc1CN(CCN(CC1CCCCC1)S(=O)(=O)c1ccccn1)c1ccc(C#N)cn1` [21c, N-(2-((5-cyanopyridin-2-yl)((1-methyl-1H-imidazol-5-yl)methyl)amino)ethyl)-N-(cyclohexylmethyl)pyridine-2-sulfonamide], in assay [1], the “selectivity (ratio of GGTase-I to FTase IC50s)” value is recorded as 2. Besides, the IC50 in assay [2] was 0.288 ± 0.251 µM; in assay [3] (Mus musculus), 19 µM.

Regarding `Cn1cnc(S(=O)(=O)N(CCN(Cc2cncn2C)c2ccc(C#N)cc2)Cc2ccoc2)c1` [compound 1ah, [N-(Furan-3-ylmethyl), N-{2-[(4-cyanophenyl)-(3-methyl-3H-imidazol-4-ylmethyl)-amino]-ethyl}]1-methyl-1H-imidazole-4-sulfonamide], in assay [1], the “selectivity (ratio of GGTase-I to FTase IC50s)” value is reported as 19. The IC50 in assay [2] is 0.65 µM; in assay [3] (Mus musculus), more than 10 µM.

Consider `Cc1noc(C)c1CN(CCN(Cc1cncn1C)c1ccc(C#N)cc1)S(=O)(=O)c1cn(C)cn1` [compound 1al, [N-(3,5-Dimethyl-isoxazol-4-ylmethyl), N-{2-[(4-cyanophenyl)-(3-methyl-3H-imidazol-4-ylmethyl)-amino]-ethyl}]1-methyl-1H-imidazole-4-sulfonamide], for which the “selectivity (ratio of GGTase-I to FTase IC50s)” value in assay [1] was found to be 2.7. Besides, the IC50 in assay [2] and in assay [3] (Mus musculus) was more than 10 µM each time.

With `Cc1nn(C)c(C)c1CN(CCN(Cc1cncn1C)c1ccc(C#N)cc1)S(=O)(=O)c1cn(C)cn1` [compound 1an, [N-(1,3,5-Trimethyl-1H-pyrazol-4-ylmethyl), N-{2-[(4-cyanophenyl)-(3-methyl-3H-imidazol-4-ylmethyl)-amino]-ethyl}]1-methyl-1H-imidazole-4-sulfonamide], in assay [1], the “selectivity (ratio of GGTase-I to FTase IC50s)” value is recorded as more than 1.9 and the IC50 was found to be 5.3 ± 1.7 µM. Also, the IC50 in assay [4] is more than 10 µM.

In the case of `Cn1cnc(S(=O)(=O)N(CCN(Cc2cncn2C)c2ccc(C#N)cc2)CC2CCN(c3ncccn3)CC2)c1` [compound 1az], the “selectivity (ratio of GGTase-I to FTase IC50s)” value in assay [1] is on record as more than 20. Besides, the 50% inhibitory concentration (IC50) in assay [2] and in assay [3] (Mus musculus) was more than 10 µM in each case.

`CCCS(=O)(=O)N(CCN(Cc1cncn1C)c1ccc(C#N)cc1)Cc1ccccc1` [compound 1b, N-Benzyl, N-{2-[(4-cyanophenyl)-(3-methyl-3H-imidazol-4-ylmethyl)-amino]-ethyl}propane-1-sulfonamide]: in assay [1], the “selectivity (ratio of GGTase-I to FTase IC50s)” value came to 85. In addition, the values for the IC50 in assay [1], in assay [4] and in assay [3] (Mus musculus) were 0.048 ± 0.035 µM, 4.1 ± 1.7 µM and more than 10 µM, respectively.

For the compound `Cn1cnc(S(=O)(=O)N(CCN(Cc2cnc[nH]2)c2ccc(Br)cc2)Cc2ccccc2)c1` [compound 4], the “selectivity (ratio of GGTase-I to FTase IC50s)” value in assay [1] was found to be 6.0. In addition, the IC50 in assay [1] is 0.73 ± 0.02 µM; in assay [4], 4.4 µM; in assay [2] it was 5.7 ± 1.2 µM; in assay [3] (Mus musculus), more than 10 µM.

Regarding `Cn1cnc(S(=O)(=O)N(CCN(Cc2cncn2C)c2ccc(Br)cc2)Cc2ccccc2)c1` [compound 5], the “selectivity (ratio of GGTase-I to FTase IC50s)” value in assay [1] was 6.7. The IC50 in assay [1] was 0.079 ± 0.03 µM; in assay [4], 0.53 ± 0.17 µM; in assay [2], 1.6 ± 1.3 µM; in assay [3], more than 10 µM.
